The results in this text go back to patent publication US10519152B2, “Compounds and their use in treating cancer” (AstraZeneca AB, priority 2017, dated 2019).

For this test, the target named is T1, Estrogen Receptor (ERα) in MCF-7 human ductal carcinoma breast cell line (Homo sapiens, UniProt P03372).
T1 construct: endogenous in cells; host or cells: MCF-7
T1 sequence (P03372 1-595): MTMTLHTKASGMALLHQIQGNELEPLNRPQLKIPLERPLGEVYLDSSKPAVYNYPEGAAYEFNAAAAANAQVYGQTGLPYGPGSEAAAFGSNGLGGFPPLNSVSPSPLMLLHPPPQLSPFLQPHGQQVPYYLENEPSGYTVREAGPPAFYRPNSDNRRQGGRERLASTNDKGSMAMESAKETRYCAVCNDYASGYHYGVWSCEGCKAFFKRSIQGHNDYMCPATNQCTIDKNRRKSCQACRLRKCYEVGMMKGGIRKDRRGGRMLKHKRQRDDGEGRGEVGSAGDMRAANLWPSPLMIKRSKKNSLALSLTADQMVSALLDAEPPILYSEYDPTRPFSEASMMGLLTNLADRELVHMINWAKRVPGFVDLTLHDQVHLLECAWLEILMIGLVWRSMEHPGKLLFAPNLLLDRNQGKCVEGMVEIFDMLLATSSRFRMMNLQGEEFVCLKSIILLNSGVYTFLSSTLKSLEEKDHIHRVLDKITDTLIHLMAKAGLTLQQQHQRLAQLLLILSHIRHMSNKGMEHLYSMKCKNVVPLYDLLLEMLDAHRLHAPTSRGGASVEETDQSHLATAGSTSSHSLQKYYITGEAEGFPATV
Briefly: MCF-7 ER degradation assay (cell based immuno-fluorescence). The following applies: MCF-7 cells; for ER degradation ≥ 90% at 0.3 μM: ER degradation by fulvestrant at 0.3 μM is defined as 100%; for DC50: 18-22 hours incubation, 50% reduction of ERα expression, single experiment or average of two or more, read-out: MCF-7 ER degradation IC50. As for the experimental part:
MCF-7 ER Degradation Assay
The ability of compounds to down-regulate Estrogen Receptor (ER) numbers was assessed in a cell based immuno-fluorescence assay using the MCF-7 human ductal carcinoma breast cell line. MCF-7 cells were revived directly from a cryovial (approx 5×10^6 cells) in Assay Medium (phenol red free Dulbecco's Modified Eagle's medium (DMEM); Sigma D5921) containing 2 mM L-Glutamine and 5% (v/v) Charcoal/Dextran treated foetal calf serum. Cells were syringed once using a sterile 18 G×1.5 inch (1.2×40 mm) broad gauge needle and cell density was measured using a Coulter Counter (Beckman). Cells were further diluted in Assay Medium to a density of 3.75×10^4 cells per mL and 40 μL per well added to transparent bottomed, black, tissue culture-treated 384 well plates (Costar, No. 3712) using a Thermo Scientific Matrix WellMate or Thermo Multidrop. Following cell seeding, plates were incubated overnight at 37° C., 5% CO2 (Liconic carousel incubator). Test data was generated using the LabCyte Echo™ model 555 compound reformatter which is part of an automated workcell (Integrated Echo 2 workcell). Compound stock solutions (10 mM) of the test compounds were used to generate a 384 well compound dosing plate (Labcyte P-05525-CV1). 40 μL of each of the 10 mM compound stock solutions was dispensed into the first quadrant well and then 1:100 step-wise serial dilutions in DMSO were performed using a Hydra II (MATRIX UK) liquid handling unit to give 40 μL of diluted compound into quadrant wells 2 (0.1 mM), 3 (1 μM) and 4 (0.01 μM), respectively. 40 μL of DMSO added to wells in row P on the source plate allowed for DMSO normalisation across the dose range. To dose the control wells 40 μL of DMSO was added to row O1 and 40 μL of 100 μM fulvestrant in DMSO was added to row O3 on the compound source plate.
The Echo uses acoustic technology to perform direct microplate-to-microplate transfers of DMSO compound solutions to assay plates. The system can be programmed to transfer volumes as low as 2.5 nL in multiple increments between microplates and in so doing generates a serial dilution of compound in the assay plate which is then back-filled to normalise the DMSO concentration across the dilution range. Compounds were dispensed onto the cell plates with a compound source plate prepared as above producing a 12 point duplicate […] dose range with 3-fold dilutions and one final 10-fold dilution using the Integrated Echo 2 workcell. The maximum signal control wells were dosed with DMSO to give a final concentration of 0.3%, and the minimum signal control wells were dosed with fulvestrant to give a final concentration of 100 nM accordingly. Plates were further incubated for 18-22 hours at 37° C., 5% CO2 and then fixed by the addition of 20 μL of 11.1% (v/v) formaldehyde solution (in phosphate buffered saline (PBS)) giving a final formaldehyde concentration of 3.7% (v/v). Cells were fixed at room temperature for 20 mins before being washed two times with 250 μL PBS/Proclin (PBS with a Biocide preservative) using a BioTek platewasher, 40 μL of PBS/Proclin was then added to all wells and the plates stored at 4° C. The fixing method described above was carried out on the Integrated Echo 2 workcell. Immunostaining was performed using an automated AutoElisa workcell. The PBS/Proclin was aspirated from all wells and the cells permeabilised with 40 μL PBS containing 0.5% Tween™ 20 (v/v) for 1 hour at room temperature. The plates were washed three times in 250 μL of PBS/0.05% (v/v) Tween 20 with Proclin (PBST with a Biocide preservative) and then 20 μL of ERα (SP1) Rabbit monoclonal antibody (Thermofisher) 1:1000 in PBS/Tween™/3% (w/v) Bovine Serum Albumin was added. The plates were incubated overnight at 4° C. (Liconic carousel incubator) and then washed three times in 250 μL of PBS/0.05% (v/v) Tween™ 20 with Proclin (PBST). […]

Turning to `Cc1ncsc1-c1ccc(CNC(=O)[C@@H]2C[C@@H](O)CN2C(=O)[C@@H](NC(=O)COCc2ccc(COc3cc(F)c([C@@H]4c5[nH]c6ccccc6c5C[C@@H](C)N4CC(C)(C)F)c(F)c3)cc2)C(C)(C)C)cc1` [Example 19, (2S,4R)-1-((S)-2-(2-((4-((3,5-difluoro-4-((1R,3R)-2-(2-fluoro-2-methylpropyl)-3-methyl-2,3,4,9-tetrahydro-1H-pyrido[3,4-b]indol-1-yl)phenoxy)methyl)benzyl)oxy)acetamido)-3,3-dimethylbutanoyl)-4-hydroxy-N-(4-(4-methylthiazol-5-yl)benzyl)pyrrolidine-2-carboxamide], the “ER degradation ≥ 90% at 0.3 μM” value is “••” and the DC50 is 3200 pM.

For `Cc1ncsc1-c1ccc(CNC(=O)[C@@H]2C[C@@H](O)CN2C(=O)[C@@H](NC(=O)CCCCCCNC(=O)/C=C/c2cc(F)c([C@@H]3c4[nH]c5ccccc5c4C[C@@H](C)N3CC(C)(C)F)c(F)c2)C(C)(C)C)cc1` [Example 59, (2S,4R)-1-((S)-2-(7-((E)-3-(3,5-difluoro-4-((1R,3R)-2-(2-fluoro-2-methylpropyl)-3-methyl-2,3,4,9-tetrahydro-1H-pyrido[3,4-b]indol-1-yl)phenyl)acrylamido)heptanamido)-3,3-dimethylbutanoyl)-4-hydroxy-N-(4-(4-methylthiazol-5-yl)benzyl)pyrrolidine-2-carboxamide, Trifluoroacetic Acid], the “ER degradation ≥ 90% at 0.3 μM” value is recorded as “••” and the DC50 came out at 800 pM.

As for `Cc1ncsc1-c1ccc(CNC(=O)[C@@H]2C[C@@H](O)CN2C(=O)[C@@H](NC(=O)COCC(F)(F)COCCCCCOc2cc(F)c([C@@H]3c4[nH]c5ccccc5c4C[C@@H](C)N3CC(C)(C)F)c(F)c2)C(C)(C)C)cc1` [Example 126, (2S,4R)-1-((S)-2-(2-(3-((5-(3,5-Difluoro-4-((1R,3R)-2-(2-fluoro-2-methylpropyl)-3-methyl-2,3,4,9-tetrahydro-1H-pyrido[3,4-b]indol-1-yl)phenoxy)pentyl)oxy)-2,2-difluoropropoxy)acetamido)-3,3-dimethylbutanoyl)-4-hydroxy-N-(4-(4-methylthiazol-5-yl)benzyl)pyrrolidine-2-carboxamide], the “ER degradation ≥ 90% at 0.3 μM” value is “•” and the DC50 amounted to 1800 pM. Regarding `Cc1ncsc1-c1ccc(CNC(=O)[C@@H]2C[C@@H](O)CN2C(=O)[C@@H](NC(=O)COC[C@@H]2CC2COCCOc2cc(F)c([C@@H]3c4[nH]c5ccccc5c4C[C@@H](C)N3CC(C)(C)F)c(F)c2)C(C)(C)C)cc1` (single isomer, unassigned) [Example 123, (2S,4R)-1-[(2S)-2-[[2-[[(1R*2S*)-2-[2-[3,5-Difluoro-4-[(R,3R)-2-(2-fluoro-2-methyl-propyl)-3-methyl-1,3,4,9-tetrahydropyrido[3,4-b]indol-1-yl]phenoxy]ethoxymethyl]cyclopropyl]methoxy]acetyl]amino]-3,3-dimethyl-butanoyl]-4-hydroxy-N-[[4-(4-methylthiazol-5-yl)phenyl]methyl]pyrrolidine-2-carboxamide], the “ER degradation ≥ 90% at 0.3 μM” value is “•” and the DC50 came to 500 pM. `Cc1ncsc1-c1ccc(CNC(=O)[C@@H]2C[C@@H](O)CN2C(=O)[C@@H](NC(=O)COC[C@@H]2CC2COCCOc2cc(F)c([C@@H]3c4[nH]c5ccccc5c4C[C@@H](C)N3CC(C)(C)F)c(F)c2)C(C)(C)C)cc1` (single isomer, unassigned) [Example 124, (2S,4R)-1-[(2S)-2-[[2-[[(1R*2S*)-2-[2-[3,5-Difluoro-4-[(1R,3R)-2-(2-fluoro-2-methyl-propyl)-3-methyl-1,3,4,9-tetrahydropyrido[3,4-b]indol-1-yl]phenoxy]ethoxymethyl]cyclopropyl]methoxy]acetyl]amino]-3,3-dimethyl-butanoyl]-4-hydroxy-N-[[4-(4-methylthiazol-5-yl)phenyl]methyl]pyrrolidine-2-carboxamide]: the “ER degradation ≥ 90% at 0.3 μM” value was “•” and the DC50 stood at 800 pM. `Cc1ncsc1-c1ccc(CNC(=O)[C@@H]2C[C@@H](O)CN2C(=O)[C@@H](NC(=O)C2(OCCCOCCCOc3cc(F)c([C@@H]4c5[nH]c6ccccc6c5C[C@@H](C)N4CC(C)(C)F)c(F)c3)CC2)C(C)(C)C)cc1` [Example 135, (2S,4R)-1-((S)-2-(1-(3-(3-(3,5-Difluoro-4-((1R,3R)-2-(2-fluoro-2-methylpropyl)-3-methyl-2,3,4,9-tetrahydro-1H-pyrido[3,4-b]indol-1-yl)phenoxy)propoxy)propoxy)cyclopropane-1-carboxamido)-3,3-dimethylbutanoyl)-4-hydroxy-N-(4-(4-methylthiazol-5-yl)benzyl)pyrrolidine-2-carboxamide]: the “ER degradation ≥ 90% at 0.3 μM” value is recorded as “•”.
